Data: patent US20060205679A1, “Topical and oral formulations of cardiac glycosides for treating skin diseases” (Azaya Therapeutics, Inc., priority 2004, published 2006)

Experiments:
[1] = tested on: cultered cancer cell lines; details: cited from earlier work
[2] = tested on: human malignant cell lines; details: rapidly proliferating normal cells not affected; cited from earlier work
[3] = tested on: primary cultures of tumor cells from patients and a human cell line panel; details: cited from earlier work
[4] = tested on: androgen independent human prostate cancer cell lines; details: in-vitro; cited from earlier work
[5] = in 50 ml of 9.6% solution of hydroxypropyl-β-cyclodextrin, 70 to 80° C.
Protocol: 200 mg of oleandrin was weighed and placed in a sterile test tube. The oleandrin was dissolved in 3 to 5 mL of purified absolute ethanol. […] The ethanolic solution of oleandrin was slowly added to the beaker with stirring. […] The solution was sterile-filtered through a 0.22 μm filter. The solution was frozen below −40° C. and lyophilized.
500 mg of digitoxin was weighed and placed in a sterile test tube. […] The ethanolic solution of digitoxin was slowly added to the beaker with stirring. […] The solution was sterile-filtered through a 0.22 μm filter. The solution was frozen below −40° C. and lyophilized.
200 mg of proscillaridin-A was weighed and placed in a sterile test tube and was dissolved in 5 to 10 mL of purified absolute ethanol. […] The ethanolic solution of proscillaridin-A was slowly added to the beaker with stirring. […] The solution was sterile filtered through a 0.22 μm filter. The solution was frozen below −40° C. and lyophilized.

[6] = tested on: FGF-2 release from PC3 cells; details: oleandrin 0.1 ng/mL; cited from earlier work
[7] = tested on: FGF-2 release from DU145 cells; details: oleandrin 0.1 ng/mL; cited from earlier work
human cancer cells = details: cited from earlier work
murine cancer cells = details: cited from earlier work
NF-κB = details: cited from earlier work
AP-1 = details: cited from earlier work
[8] = tested on: c-Jun NH2-terminal kinase; details: cited from earlier work
[9] = cited from earlier work

CO[C@@H]1C[C@H](O[C@H]2CC[C@@]3(C)[C@H](CC[C@@]45O[C@@]46CC[C@H](C4=CC(=O)OC4)[C@@]6(C)CC[C@H]35)C2)O[C@H](C)[C@@H]1O [adynerin]
anti-cancer activity [1]: significant anti-cancer activity

C[C@H]1O[C@@H](O[C@H]2[C@@H](O)C[C@H](O[C@H]3[C@@H](O)C[C@H](O[C@H]4CC[C@@]5(C)[C@H](CC[C@@H]6[C@@H]5CC[C@]5(C)[C@@H](C7=CC(=O)OC7)CC[C@]65O)C4)O[C@@H]3C)O[C@@H]2C)C[C@H](O)[C@@H]1O [digitoxin]
growth and apoptosis at non-toxic concentrations [2]: inhibit growth and induce apoptosis

C[C@H]1O[C@@H](O[C@H]2[C@@H](O)C[C@H](O[C@H]3[C@@H](O)C[C@H](O[C@H]4CC[C@@]5(C)[C@H](CC[C@@H]6[C@@H]5C[C@@H](O)[C@]5(C)[C@@H](C7=CC(=O)OC7)CC[C@]65O)C4)O[C@@H]3C)O[C@@H]2C)C[C@H](O)[C@@H]1O [digoxin]
selective toxicity against solid or hematological tumor cells from patients [3]: selective toxicity against solid tumor cells
growth and apoptosis at non-toxic concentrations [2]: inhibit growth and induce apoptosis
induction of apoptosis [4]: induce apoptosis

CO[C@H]1C[C@H](O[C@H]2CC[C@@]3(C)[C@H](CC[C@@H]4[C@@H]3CC[C@]3(C)[C@@H](C5=CC(=O)OC5)[C@@H](OC(C)=O)C[C@]43O)C2)O[C@@H](C)[C@@H]1O [oleandrin, 16β-acetoxy-3β-[(2,6 dideoxy-3-0-methyl-α2-L-arabino-hexopyranosyl)oxy]-14-hydroxy-5β, 14β-card-20(22)-enolide]
amount effectively solubilized [5]: 200 mg
inhibition of FGF-2 release [6]: 45.7%
inhibition of FGF-2 release [7]: 49.9%
anti-cancer activity [1]: significant anti-cancer activity
ability to kill human cancer cells (human cancer cells): able to kill
toxicity to murine cancer cells (murine cancer cells): not toxic
induction of apoptosis [4]: induce apoptosis
NF-κB activation induced by phorbol esters and bacterial lipopolysaccharide (NF-κB): blocked
NF-κB-dependent reporter gene transcription activated by TNF (NF-κB): suppressed
TNF induced activation of NF-κB (NF-κB; concentration and time dependent): blocked
AP-1 activation induced by TNF and other stimuli (AP-1): blocked
TNF induced activation of c-Jun NH2-terminal kinase [8]: inhibited
solubility in organic solvents ([9]; ethanol and chloroform): soluble
stability with respect to heat ([9]; heat): heat stable
stability with respect to light ([9]; light): unstable
solubility in water ([9]; water): almost insoluble

C[C@@H]1O[C@@H](O[C@H]2C[C@@H](O)[C@]3(CO)[C@H]4[C@H](O)C[C@]5(C)[C@@H](C6=CC(=O)OC6)CC[C@]5(O)[C@@H]4CC[C@]3(O)C2)[C@H](O)[C@H](O)[C@H]1O [ouabain]
induction of apoptosis [4]: induce apoptosis

C[C@@H]1O[C@@H](O[C@@H]2C=C3CC[C@@H]4[C@H](CC[C@]5(C)[C@@H](c6ccc(=O)oc6)CC[C@]45O)[C@@]3(C)CC2)[C@H](O)[C@H](O)[C@H]1O [proscillaridin-A, Proscillaridin A, reference compound]
amount effectively solubilized [5]: 200 mg
selective toxicity against solid or hematological tumor cells from patients [3]: no selective toxicity

C[C@H]1[C@H](C)CC[C@]2(C(=O)O)CC[C@]3(C)C(=CC[C@@H]4[C@@]5(C)CC[C@H](O)C(C)(C)[C@@H]5CC[C@]43C)[C@H]12 [ursolic acid]
anti-cancer activity [1]: significant anti-cancer activity
